{
  "source": "patent US12233063B2",
  "about": "“Compositions and methods for treating eye disorders” (THE REGENTS OF THE UNIVERSITY OF MICHIGAN, priority 2017, dated 2025)",
  "key": {"661W cells": {"system": "661W cells", "assay": "Cell viability of 661W cells (RealTime-Glo MT)", "assay_type": "cell-based", "conditions": "48 hours; for cell viability above DMSO-treated cells in standard tissue culture conditions / less cell death as compared to vehicle: FasL", "description": "Cell viability. Cell viability was measured using a luminescent assay kit not based on ATP (RealTime-Glo MT Cell Viability Assay, Promega, Madison, WI, Cat No. G9711). 661W cells were seeded in 96-well plates (Nunc, Rochester, NY) at 2,500 cells/well 24 hours prior to treatment. […] Cell viability was measured 48 hours after treatment according to the manufacturer's instructions. […] Viability was again assessed at 48 hours after addition of FasL and HA Luminescence was measured in a plate reader luminometer (BMG Labtech, Inc, Cary, NC)."}, "caspase 8 [1]": {"system": "caspase 8", "assay": "Caspase 8 activity assay in 661W cells", "assay_type": "cell-based", "conditions": "8 hours", "description": "(§1) Caspase Activity Assay. Luminescent assay kits (Caspase-Glo 8 and 3/7 Assay Systems, Promega, Madison, WI, Cat Nos. G8200 and G8090, respectively) were utilized to measure caspase 8 and caspase 3/7 activity according to the manufacturer's instructions. The 661W cells were seeded in white-walled 96-well plates at 2,500 cells/well for 24 hours prior to treatment. […] Caspase activity was measured at 8 hours status post treatment by incubating the cells with substrate for 1 hour according to the manufacturer's instructions. Luminescence was measured in a plate reader luminometer (BMG Labtech, Inc, Cary, NC)."}, "human recombinant PKM2": {"biological_target": "T1, human recombinant PKM2 (Homo sapiens, UniProt P14618)", "T1 construct": "purchased Sigma SAE0021", "T1 sequence (P14618 whole entry)": "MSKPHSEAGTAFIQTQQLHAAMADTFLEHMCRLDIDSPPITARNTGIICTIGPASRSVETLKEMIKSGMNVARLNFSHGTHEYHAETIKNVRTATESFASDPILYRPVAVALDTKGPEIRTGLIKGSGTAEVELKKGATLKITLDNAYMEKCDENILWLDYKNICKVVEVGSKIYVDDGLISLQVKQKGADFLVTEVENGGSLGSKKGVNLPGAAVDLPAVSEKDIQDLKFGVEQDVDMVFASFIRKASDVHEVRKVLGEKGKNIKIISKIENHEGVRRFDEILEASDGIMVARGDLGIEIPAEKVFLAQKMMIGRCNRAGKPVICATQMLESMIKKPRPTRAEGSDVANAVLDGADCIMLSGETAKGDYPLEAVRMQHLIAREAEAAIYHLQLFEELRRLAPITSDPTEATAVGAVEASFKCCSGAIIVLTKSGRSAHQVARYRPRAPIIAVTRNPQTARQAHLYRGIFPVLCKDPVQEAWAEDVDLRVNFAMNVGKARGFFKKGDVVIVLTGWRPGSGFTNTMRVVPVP", "assay": "Pyruvate kinase activity enzyme assay, recombinant enzyme (LDH-coupled)", "assay_type": "biochemical", "conditions": "read-out: max activation", "description": "Pyruvate Kinase Activity Enzyme Assay. Recombinant Enzyme. A continuous, enzyme-coupled assay, which uses lactate dehydrogenase (LDH) and measures the depletion of NADH via absorbance at 340 nm was utilized to determine the pyruvate kinase activity. […] The decrease in absorbance at 340 nm was monitored using a Spectrostar Omega plate reader (BMG LABTECH Inc., Cary, NC, USA). Initial velocities were calculated with the MARS software. Data were normalized to DMSO (dimethyl sulfoxide)-treated PKM2 activity."}, "[2]": {"system": "genes involved in glucose metabolism", "assay": "Quantitative PCR of glucose metabolism genes in treated rat retinas", "assay_type": "in vivo", "conditions": "2 μL of 7.5 mM intravitreal, 3 days, fold change cut-off of 2, vs untreated and DMSO", "description": "Quantitative Real-Time PCR. Intravitreal injections of ML-265 or vehicle (DMSO) were performed in Brown-Norway, adult rats as described above. […] Left eyes were injected with ML-265 or DMSO. The right eye served as the control, with all steps of the procedure performed, except for introduction of the blunt cannula and injection of ML-265 or DMSO. Retinas were harvested 3 days post-injection.\nTotal RNA was purified from retinal tissues of rats using RNeasy Mini kit (Qiagen, Cat No./ID: 74104) and QIAshredder (Qiagen, Cat No./ID: 79654). cDNA was synthesized using RT^2 First Strand Kit (Cat. No./ID: 330401) according to the manufacturer's instructions. Quantitative PCR was performed in at least triplicate for the different experimental groups using the Rat Glucose Metabolism RT^2 Profiler™ PCR Array (Qiagen, Cat No./ID: PARN-006Z). This PCR array allows simultaneous profiling of 84 genes involved in glucose metabolism and includes housekeeping genes for normalization. Reactions were performed and monitored using a CFX96 real time PCR system (Bio-Rad Laboratories), 1 cycle at 95° C. for 10 min followed by 40 cycles at 95° C. for 15 sec, 60° C. for 1 min. Data analysis was performed using the RT^2 Profiler™ PCR Array Data Analysis Template from Qiagen. Those genes whose relative expression level was low or not detected in all experimental groups were excluded from analysis. […]"}, "H1299 cell xenografts": {"system": "H1299 cell xenografts", "conditions": "cited from earlier work"}, "caspase 3/7": {"system": "caspase 3/7", "assay": "Caspase 3/7 activity assay in 661W cells", "assay_type": "cell-based", "conditions": "8 hours", "description": "as §1"}, "caspase 8 [3]": {"system": "caspase 8", "assay": "Caspase 8 activity in experimental retinal detachment", "assay_type": "in vivo, Brown-Norway rats", "conditions": "3 days after retinal detachment, subretinal injection", "description": "Experimental Model of Retinal Detachment. Detachments were created in Brown-Norway, adult rats as previously described (Wubben et al., supra; Besirli et al., 2010 supra; Zacks, D. N. et al. Invest. Ophthalmol. Vis. Sci. 44, 1262-1267 (2003); Zacks, D. N., et al. Invest. Ophthalmol. Vis. Sci. 45, 4563-4569 (2004); Besirli, C. G., et al. Invest. Ophthalmol. Vis. Sci. 52, 4193-4199 (2011)). Briefly, rodents were anesthetized with a mix of ketamine (100 mg/mL) and xylazine (20 mg/mL), and pupils were dilated with topical phenylephrine (2.5%) and tropicamide (1%). A 25-gauge microvitreoretinal blade (Walcott Rx Products, Ocean View, N.J.) was used to create a sclerotomy located 1-2 mm posterior to the limbus with care taken to avoid lens damage. […]\n1 tablet of protease inhibitor (Complete Mini; Roche Diagnostics, Indianapolis, IN) and 1 tablet of phosphatase inhibitor (PhosSTOP; Roche Diagnostics, Indianapolis, IN) per 10 mL were added to the lysis buffer. The homogenates were centrifuged at 10,000 g for 10 minutes at 4° C., and total protein concentration of the supernatant was determined using a Micro BCA protein assay kit (ThermoScientific, Rockford, IL). Substrate was incubated with 50 μg of protein in a white-walled 96 well-plate at room temperature for 1 hour and luminescence was measured as above. […]"}, "[4]": {"assay": "Ocular pharmacokinetics after single intravitreal injection, aqueous humor", "assay_type": "in vivo, Dutch-belted rabbits", "conditions": "male, Dutch-belted, other: intravitreal, rabbit aqueous humor", "description": "Pharmacokinetics. Pharmacokinetic studies were performed in Dutch-belted rabbits. As previously described, male rabbits were anesthetized with inhalant anesthesia (sevoflurane) prior to each aqueous humor collection or intravitreal injection. An external heat source was used to prevent hypothermia. […] A Flynn pediatric lid speculum was placed in the eye and betadine was applied to the injection site. The temporal sclera was marked with a caliper 2 mm from the limbus. […] Delivery of the compound into the eye was confirmed via clinical inspection (Smith, A. et al. J Ocul Pharmacol Ther 34, 477-485 (2018)). An aqueous humor sample (100 microliters) was collected from each eye prior to intravitreal injection to serve as a baseline control. A 30-gauge needle on a 1 ml syringe was used to enter the anterior chamber of the eye and aspirate the aqueous humor in a controlled fashion. […] Samples were analyzed by LC-MS/MS (liquid chromatography-mass spectrometry/mass spectrometry). […] Rabbits are the most commonly used animals in intravitreal pharmacokinetic studies with good correlation to the human eye (Del Amo, E. M. & Urtti, A. Exp. Eye Res. 137, 111-124 (2015)). As described above, two different concentrations were injected into the vitreous of rabbits, and the aqueous humor was sampled at various times thereafter. […]"}, "pyruvate kinase (PK)": {"biological_target": "T2, pyruvate kinase (PK) (Rattus norvegicus, UniProt P11980)", "T2 construct": "from tissue; host or cells: retina of Brown-Norway adult rats", "T2 sequence (P11980 1-531 isoform P11980-2)": "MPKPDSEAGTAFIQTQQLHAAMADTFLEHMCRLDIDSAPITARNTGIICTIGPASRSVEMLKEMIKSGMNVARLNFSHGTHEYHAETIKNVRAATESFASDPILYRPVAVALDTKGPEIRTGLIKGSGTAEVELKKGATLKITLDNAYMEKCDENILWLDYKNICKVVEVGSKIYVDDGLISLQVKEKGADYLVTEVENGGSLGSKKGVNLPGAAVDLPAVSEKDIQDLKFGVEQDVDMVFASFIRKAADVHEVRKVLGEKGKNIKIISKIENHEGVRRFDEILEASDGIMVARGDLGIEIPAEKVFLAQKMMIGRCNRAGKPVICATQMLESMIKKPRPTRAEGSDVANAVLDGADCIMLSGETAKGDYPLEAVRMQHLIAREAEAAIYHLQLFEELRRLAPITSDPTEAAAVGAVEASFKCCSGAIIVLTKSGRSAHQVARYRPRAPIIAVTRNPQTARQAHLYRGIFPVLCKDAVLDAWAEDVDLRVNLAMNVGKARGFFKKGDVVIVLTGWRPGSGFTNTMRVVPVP", "assay": "In vivo pyruvate kinase activation in rat retina after intravitreal injection", "conditions": "rats", "description": "Animals. Intravitreal injections of ML-265 or vehicle (DMSO) were performed in Brown-Norway, adult rats. Rodents were anesthetized with a mix of ketamine (100 mg/mL) and xylazine (20 mg/mL), and pupils were dilated with topical phenylephrine (2.5%) and tropicamide (1%). A 25-gauge microvitreoretinal blade (Walcott Rx Products, Ocean View, N.J.) was used to create a sclerotomy located 1-2 mm posterior to the limbus with care taken to avoid lens damage. A blunt, 34-gauge cannula was introduced through the sclerotomy into the vitreous cavity. […] Four hours after intravitreal injection, retinas from experimental rat eyes were dissected from the RPE-choroid, homogenized, and lysed in RIPA Lysis and Extraction Buffer with protease inhibitors. The assay was carried out using 4 microliters of rat retinal lysate in an enzyme buffer mixture (50 mM Tris-HCl, pH 7.4, 100 mM KCl, 5 mM MgCl2, 1 mM ADP, 0.5 mM PEP, and 0.2 mM NADH) and 8 units of LDH similar to what has been previously described (Wubben et al., supra; Raj ala et al., supra). Pyruvate kinase activity was normalized to total protein in each retinal lysate.\nThe retinas of these animals were then harvested 15 days after injection and assayed for PK activity (FIG. 20)."}, "[5]": {"biological_target": "T3, pyruvate kinase (PK) in 661W cells (Mus musculus, UniProt P52480)", "T3 construct": "endogenous in cells; host or cells: 661W photoreceptor cell line", "T3 sequence (P52480 whole entry)": "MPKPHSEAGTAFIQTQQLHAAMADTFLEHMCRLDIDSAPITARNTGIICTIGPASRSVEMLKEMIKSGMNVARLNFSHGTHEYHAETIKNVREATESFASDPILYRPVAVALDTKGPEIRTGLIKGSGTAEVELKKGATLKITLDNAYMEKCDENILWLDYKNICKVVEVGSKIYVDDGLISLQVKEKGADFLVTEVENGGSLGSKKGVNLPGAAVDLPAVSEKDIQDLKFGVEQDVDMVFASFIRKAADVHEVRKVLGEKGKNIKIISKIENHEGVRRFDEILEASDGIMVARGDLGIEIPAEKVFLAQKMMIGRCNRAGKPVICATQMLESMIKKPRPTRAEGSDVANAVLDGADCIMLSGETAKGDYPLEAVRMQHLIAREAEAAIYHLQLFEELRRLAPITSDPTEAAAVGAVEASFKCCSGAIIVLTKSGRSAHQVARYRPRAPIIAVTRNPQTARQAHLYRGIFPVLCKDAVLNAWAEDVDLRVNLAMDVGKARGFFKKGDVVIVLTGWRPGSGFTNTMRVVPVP", "assay": "Pyruvate kinase activity in lysates of 661W cells treated for 2 hours", "assay_type": "cell-based", "conditions": "for AC50: 2 hours incubation", "description": "Cell Culture. The 661W photoreceptor cell line was generously provided by Dr. Muayyad al-Ubaidi (Department of Cell Biology, University of Oklahoma Health Sciences Center, Oklahoma City, OK, USA) (al-Ubaidi, M. R. et al. J. Cell Biol. 119, 1681-1687 (1992)). The 661W cell line was maintained in Dulbecco's modified Eagle's medium containing 10% fetal bovine serum, 300 mg/L glutamine, 32 mg/L putrescine, 40 μL/L of β-mercaptoethanol, and 40 μg/L of both hydrocortisone 21-hemisuccinate and progesterone. The media also contained penicillin (90 units/mL) and streptomycin (0.09 mg/mL). Cells were grown at 37° C. in a humidified atmosphere of 5% CO2 and 95% air.\nCell culture. For cell line experiments, media was replaced prior to the start of treatment with DMSO or ML-265. […] Cells were lysed and homogenized in RIPA Lysis and Extraction Buffer (Catalog number: 89900, Life Technologies Corporation, Grand Island, NY) with protease inhibitors (Complete-Mini, Roche Diagnostics, Indianapolis, IN) and clarified by centrifugation at 10,000 rpm for 10 minutes. Five microliters of the supernatant was used to assess pyruvate kinase activity, and the activity was normalized to total protein content as previously described (Walsh et al., supra)."}, "[6]": {"conditions": "standard tissue culture conditions"}, "[7]": {"conditions": "500 ng/mL FasL and 250 ng/mL HA"}, "[8]": {"conditions": "15 days after single intravitreal injection of 2 μL of 7.5 mM"}},
  "note": "Like-named read-outs stand apart in the source and are kept apart here.",
  "data": [
    {"compound": "Cn1c2cc([S+](C)[O-])sc2c2cnn(Cc3cccc(N)c3)c(=O)c21", "note": "(stereo not drawn) [ML-265]", "values": [
      {"measurement": "cell viability above DMSO-treated cells in standard tissue culture conditions", "setting": "661W cells; 200 nM ML-265", "result": 2, "unit": "%"},
      {"measurement": "less cell death as compared to vehicle", "setting": "661W cells; 200 nM ML-265", "result": 109, "unit": "%"},
      {"measurement": "cell viability above DMSO-treated cells in standard tissue culture conditions", "setting": "661W cells; 2 μM ML-265", "result": 6, "unit": "%"},
      {"measurement": "less cell death as compared to vehicle", "setting": "661W cells; 2 μM ML-265", "result": 123, "unit": "%"},
      {"measurement": "cell viability", "setting": "661W cells; [6]", "result": "no significant effect"},
      {"measurement": "caspase 8 activation", "setting": "caspase 8 [1]; [7]", "result": "significantly decreased"},
      {"measurement": "caspase 8 activity", "setting": "caspase 8 [1]; [6]", "result": "no significant effect"},
      {"measurement": "Emax", "setting": "human recombinant PKM2", "result": "> 250", "unit": "%"},
      {"measurement": "normalized gene expression patterns, glucose metabolism genes", "setting": "[2]", "result": "very similar"},
      {"measurement": "tumor size and occurrence", "setting": "H1299 cell xenografts; mice bearing H1299 cell xenografts", "result": "reduce tumor size and occurrence"},
      {"measurement": "toxicity", "setting": "H1299 cell xenografts; over 7 weeks of continuous drug exposure", "result": "No toxicity was observed"},
      {"measurement": "caspase 3/7 activation", "setting": "caspase 3/7; [7]", "result": "significantly decreased"},
      {"measurement": "caspase 3/7 activity", "setting": "caspase 3/7; [6]", "result": "no significant effect"},
      {"measurement": "caspase 8 activity vs vehicle", "setting": "caspase 8 [3]", "result": "statistically significantly less"},
      {"measurement": "half-life", "setting": "[4]; 23 mM, 50 microliters per eye, highest concentration (1 mM final vitreous), read-out: t1/2 terminal phase (converted)", "result": 177, "unit": "h"},
      {"measurement": "half-life", "setting": "[4]; between 6 and 48 hours, 100 μM and 1 mM final vitreous concentration, read-out: t1/2 initial phase (converted)", "result": 7.8, "unit": "h"},
      {"measurement": "Emax", "setting": "pyruvate kinase (PK); rat, intravitreal injection, saturating concentrations, read-out: maximum activation of PK", "result": "≤ 170", "unit": "%"},
      {"measurement": "average in vivo PK activation", "setting": "pyruvate kinase (PK); [8]", "result": 43, "unit": "%"},
      {"measurement": "median PK activation above DMSO treated retinas", "setting": "pyruvate kinase (PK); [8]", "result": 38, "unit": "%"},
      {"measurement": "AC50", "setting": "pyruvate kinase (PK); intravitreal injection, retinas 4 hours after injection", "result": 59, "unit": "nM"},
      {"measurement": "maximum activation of PK", "setting": "pyruvate kinase (PK); intravitreal injection, saturating concentrations", "result": 170, "unit": "%"},
      {"measurement": "increase in PK activity", "setting": "[5]", "result": 236, "unit": "%"},
      {"measurement": "AC50", "setting": "[5]", "result": "comparable to that with recombinant protein"},
      {"measurement": "AC50", "setting": "[5]; read-out: AC50", "result": 22, "unit": "nM"}
    ]}
  ]
}
